{"source": "ChEMBL document CHEMBL4507283", "about": "“Data for DCP probe BI-1935” (2021)", "key": {"[1]": {"target": "Calcium/calmodulin-dependent protein kinase type 1B (Homo sapiens) (UniProt Q6P2M8)", "sequence (Q6P2M8 whole entry)": "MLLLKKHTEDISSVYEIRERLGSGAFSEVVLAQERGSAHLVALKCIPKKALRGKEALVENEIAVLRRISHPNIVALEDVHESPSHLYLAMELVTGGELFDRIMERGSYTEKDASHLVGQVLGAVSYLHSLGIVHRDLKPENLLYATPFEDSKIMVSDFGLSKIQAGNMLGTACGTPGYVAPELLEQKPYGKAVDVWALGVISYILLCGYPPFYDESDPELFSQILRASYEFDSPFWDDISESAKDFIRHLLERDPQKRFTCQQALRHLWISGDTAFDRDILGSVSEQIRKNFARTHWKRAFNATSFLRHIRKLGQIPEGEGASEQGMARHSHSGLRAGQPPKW", "conditions": "Compound concentration 1000.0 nM"}, "[2]": {"target": "Serine/threonine-protein kinase 10 (Homo sapiens) (UniProt O94804)", "conditions": "Compound concentration 1000.0 nM"}, "[3]": {"target": "Calpain-1 catalytic subunit (Homo sapiens) (UniProt P07384)", "sequence (P07384 whole entry)": "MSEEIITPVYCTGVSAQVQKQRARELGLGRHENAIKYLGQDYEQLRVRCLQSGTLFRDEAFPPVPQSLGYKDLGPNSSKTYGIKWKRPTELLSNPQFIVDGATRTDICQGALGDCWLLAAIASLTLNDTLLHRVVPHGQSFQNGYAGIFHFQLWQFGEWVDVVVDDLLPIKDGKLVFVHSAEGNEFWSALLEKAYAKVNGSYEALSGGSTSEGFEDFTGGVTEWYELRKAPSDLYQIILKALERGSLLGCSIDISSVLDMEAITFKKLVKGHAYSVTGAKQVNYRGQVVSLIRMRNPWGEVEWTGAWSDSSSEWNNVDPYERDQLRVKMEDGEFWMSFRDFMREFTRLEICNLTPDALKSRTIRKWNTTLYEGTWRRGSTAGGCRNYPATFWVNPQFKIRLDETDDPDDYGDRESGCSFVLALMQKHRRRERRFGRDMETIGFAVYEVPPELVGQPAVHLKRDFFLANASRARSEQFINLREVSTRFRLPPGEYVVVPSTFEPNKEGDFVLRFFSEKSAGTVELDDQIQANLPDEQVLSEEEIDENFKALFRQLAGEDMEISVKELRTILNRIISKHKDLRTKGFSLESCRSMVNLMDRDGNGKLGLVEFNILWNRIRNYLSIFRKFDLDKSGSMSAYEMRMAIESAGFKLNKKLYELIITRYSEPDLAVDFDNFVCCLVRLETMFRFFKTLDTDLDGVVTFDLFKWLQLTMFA", "experiment": "MU-CALPAIN Eurofins-Panlabs selectivity data (BI)", "conditions": "Compound concentration 10.0 uM"}, "[4]": {"target": "Mitogen-activated protein kinase kinase kinase kinase 4 (Homo sapiens) (UniProt O95819)", "conditions": "Compound concentration 1000.0 nM"}, "[5]": {"target": "Mitogen-activated protein kinase 13 (Homo sapiens) (UniProt O15264)", "conditions": "Compound concentration 1000.0 nM"}, "[6]": {"target": "Phosphatidylinositol 5-phosphate 4-kinase type-2 gamma (Homo sapiens) (UniProt Q8TBX8)", "conditions": "Compound concentration 1000.0 nM"}, "[7]": {"target": "5'-AMP-activated protein kinase catalytic subunit alpha-2 (Homo sapiens) (UniProt P54646)", "conditions": "Compound concentration 1000.0 nM"}, "[8]": {"target": "Beta-adrenergic receptor kinase 1 (Homo sapiens) (UniProt P25098)", "conditions": "Compound concentration 1000.0 nM"}, "[9]": {"target": "Serine/threonine-protein kinase tousled-like 1 (Homo sapiens) (UniProt Q9UKI8)", "sequence (Q9UKI8 whole entry)": "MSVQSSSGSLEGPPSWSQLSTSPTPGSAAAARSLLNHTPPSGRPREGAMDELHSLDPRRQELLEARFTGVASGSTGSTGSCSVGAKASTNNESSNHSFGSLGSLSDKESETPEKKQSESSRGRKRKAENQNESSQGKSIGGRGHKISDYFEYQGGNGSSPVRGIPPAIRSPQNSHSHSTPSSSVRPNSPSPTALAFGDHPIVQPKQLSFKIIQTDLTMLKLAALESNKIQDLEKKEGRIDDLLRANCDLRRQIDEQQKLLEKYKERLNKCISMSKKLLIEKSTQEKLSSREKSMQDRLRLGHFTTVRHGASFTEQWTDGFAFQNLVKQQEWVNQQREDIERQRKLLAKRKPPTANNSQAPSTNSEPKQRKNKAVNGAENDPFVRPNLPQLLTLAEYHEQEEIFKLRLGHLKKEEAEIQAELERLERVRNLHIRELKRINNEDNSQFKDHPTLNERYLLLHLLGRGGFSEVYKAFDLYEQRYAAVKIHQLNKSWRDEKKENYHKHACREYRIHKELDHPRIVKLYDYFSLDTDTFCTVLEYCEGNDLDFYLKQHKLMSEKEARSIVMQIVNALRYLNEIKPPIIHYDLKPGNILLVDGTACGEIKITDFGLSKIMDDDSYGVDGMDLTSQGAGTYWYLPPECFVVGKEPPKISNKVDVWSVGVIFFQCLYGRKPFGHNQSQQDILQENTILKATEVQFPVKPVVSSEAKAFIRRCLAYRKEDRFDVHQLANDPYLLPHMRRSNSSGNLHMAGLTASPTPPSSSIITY", "conditions": "Compound concentration 1000.0 nM"}, "[10]": {"target": "Ephrin type-B receptor 3 (Homo sapiens) (UniProt P54753)", "conditions": "Compound concentration 1000.0 nM"}, "[11]": {"tested_on": "Epidermal growth factor receptor (Homo sapiens), P00533 [UNDEFINED MUTATION]", "conditions": "Compound concentration 1000.0 nM"}, "[12]": {"target": "Sodium-dependent serotonin transporter (Homo sapiens) (UniProt P31645)", "experiment": "5HTTRANS/HU Eurofins-Panlabs selectivity data (BI)", "conditions": "Compound concentration 10.0 uM"}, "[13]": {"target": "Cyclin-dependent kinase 4 (Homo sapiens) (UniProt P11802)", "conditions": "Compound concentration 1000.0 nM"}, "[14]": {"target": "Macrophage colony-stimulating factor 1 receptor (Homo sapiens) (UniProt P07333)", "conditions": "Compound concentration 1000.0 nM"}, "[15]": {"target": "Serine/threonine-protein kinase Chk2 (Homo sapiens) (UniProt O96017)", "conditions": "Compound concentration 1000.0 nM"}, "[16]": {"target": "Dual specificity protein kinase CLK2 (Homo sapiens) (UniProt P49760)", "sequence (P49760 whole entry, looked up)": "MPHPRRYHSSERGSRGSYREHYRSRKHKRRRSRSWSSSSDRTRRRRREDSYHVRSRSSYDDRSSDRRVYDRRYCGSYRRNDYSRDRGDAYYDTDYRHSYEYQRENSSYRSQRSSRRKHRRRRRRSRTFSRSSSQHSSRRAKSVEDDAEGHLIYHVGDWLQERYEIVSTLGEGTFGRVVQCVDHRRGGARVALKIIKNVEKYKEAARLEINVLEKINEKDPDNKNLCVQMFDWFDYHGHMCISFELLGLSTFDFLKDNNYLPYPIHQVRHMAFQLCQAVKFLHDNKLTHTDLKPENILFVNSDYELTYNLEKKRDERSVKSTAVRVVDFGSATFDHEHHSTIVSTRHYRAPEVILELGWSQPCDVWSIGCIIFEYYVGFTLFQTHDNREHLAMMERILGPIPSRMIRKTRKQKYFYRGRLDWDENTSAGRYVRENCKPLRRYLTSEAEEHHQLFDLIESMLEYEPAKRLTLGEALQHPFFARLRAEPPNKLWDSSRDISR", "conditions": "Compound concentration 1000.0 nM"}, "[17]": {"target": "GABA-A receptor; anion channel (Rattus norvegicus) (UniProt O09028+P15431+P18506+P18508+P19969+P20236+P23574+P23576+P28471+P28473+P30191+P62813+P63079+P63138+Q91ZM7+Q9ES14)", "conditions": "Compound concentration 10.0 uM"}, "[18]": {"target": "Ribosomal protein S6 kinase alpha-5 (Homo sapiens) (UniProt O75582)", "conditions": "Compound concentration 1000.0 nM"}, "[19]": {"tested_on": "eIF-2-alpha kinase GCN2 (Homo sapiens), Q9P2K8 [S808G]", "conditions": "Compound concentration 1000.0 nM"}, "[20]": {"target": "Myosin light chain kinase, smooth muscle (Homo sapiens) (UniProt Q15746)", "conditions": "Compound concentration 1000.0 nM"}, "[21]": {"target": "Sigma non-opioid intracellular receptor 1 (Homo sapiens, UniProt Q99720)", "conditions": "Compound concentration 10.0 uM"}, "[22]": {"target": "Tyrosine-protein kinase ABL1 (Homo sapiens) (UniProt P00519)", "conditions": "Compound concentration 1000.0 nM"}, "[23]": {"target": "Interleukin-1 receptor-associated kinase 3 (Homo sapiens) (UniProt Q9Y616)", "conditions": "Compound concentration 1000.0 nM"}, "[24]": {"target": "Serine/threonine-protein kinase PLK4 (Homo sapiens) (UniProt O00444)", "conditions": "Compound concentration 1000.0 nM"}, "[25]": {"target": "Serine/threonine-protein kinase MAK (Homo sapiens) (UniProt P20794)", "conditions": "Compound concentration 1000.0 nM"}, "[26]": {"target": "Cytoplasmic tyrosine-protein kinase BMX (Homo sapiens) (UniProt P51813)", "conditions": "Compound concentration 1000.0 nM"}, "[27]": {"target": "Cyclin-dependent kinase 13 (Homo sapiens) (UniProt Q14004)", "conditions": "Compound concentration 1000.0 nM"}, "[28]": {"target": "Rho-associated protein kinase 1 (Homo sapiens) (UniProt Q13464)", "conditions": "Compound concentration 1000.0 nM"}, "[29]": {"target": "MAP kinase-activated protein kinase 2 (Homo sapiens) (UniProt P49137)", "conditions": "Compound concentration 1000.0 nM"}, "[30]": {"target": "Megakaryocyte-associated tyrosine-protein kinase (Homo sapiens) (UniProt P42679)", "conditions": "Compound concentration 1000.0 nM"}, "[31]": {"target": "Serine/threonine-protein kinase Nek9 (Homo sapiens) (UniProt Q8TD19)", "conditions": "Compound concentration 1000.0 nM"}, "[32]": {"target": "Tyrosine-protein kinase ABL2 (Homo sapiens) (UniProt P42684)", "sequence (P42684 whole entry)": "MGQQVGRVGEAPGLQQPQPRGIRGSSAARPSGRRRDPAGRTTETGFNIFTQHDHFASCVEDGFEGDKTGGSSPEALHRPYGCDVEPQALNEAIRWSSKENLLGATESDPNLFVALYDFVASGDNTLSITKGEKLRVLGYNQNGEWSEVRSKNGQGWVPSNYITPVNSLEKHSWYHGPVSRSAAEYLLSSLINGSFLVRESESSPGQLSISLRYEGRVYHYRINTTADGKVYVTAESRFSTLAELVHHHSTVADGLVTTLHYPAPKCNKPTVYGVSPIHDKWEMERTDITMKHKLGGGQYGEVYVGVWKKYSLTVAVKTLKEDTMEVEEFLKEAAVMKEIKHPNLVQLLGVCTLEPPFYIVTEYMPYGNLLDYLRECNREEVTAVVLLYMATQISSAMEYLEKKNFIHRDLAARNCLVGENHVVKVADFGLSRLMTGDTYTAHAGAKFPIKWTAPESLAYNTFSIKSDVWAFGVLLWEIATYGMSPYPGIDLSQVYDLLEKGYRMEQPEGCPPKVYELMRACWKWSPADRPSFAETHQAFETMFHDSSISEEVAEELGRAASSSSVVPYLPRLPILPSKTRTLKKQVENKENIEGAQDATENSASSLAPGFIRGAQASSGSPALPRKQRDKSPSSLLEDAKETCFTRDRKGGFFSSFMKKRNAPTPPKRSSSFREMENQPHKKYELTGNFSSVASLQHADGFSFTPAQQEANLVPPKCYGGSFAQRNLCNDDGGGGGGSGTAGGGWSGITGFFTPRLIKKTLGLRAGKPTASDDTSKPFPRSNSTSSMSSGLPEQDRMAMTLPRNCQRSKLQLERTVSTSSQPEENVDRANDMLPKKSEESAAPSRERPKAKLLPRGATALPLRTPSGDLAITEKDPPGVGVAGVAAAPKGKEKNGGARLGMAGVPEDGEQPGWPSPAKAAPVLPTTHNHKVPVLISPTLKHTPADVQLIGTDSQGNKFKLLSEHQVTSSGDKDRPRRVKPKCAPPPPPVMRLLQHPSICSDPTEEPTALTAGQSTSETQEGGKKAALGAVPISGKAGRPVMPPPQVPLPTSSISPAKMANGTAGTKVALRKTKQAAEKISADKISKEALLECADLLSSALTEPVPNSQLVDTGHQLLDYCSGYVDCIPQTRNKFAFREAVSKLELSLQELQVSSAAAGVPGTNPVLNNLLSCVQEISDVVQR", "conditions": "Compound concentration 1000.0 nM"}, "[33]": {"target": "RAF proto-oncogene serine/threonine-protein kinase (Homo sapiens) (UniProt P04049)", "conditions": "Compound concentration 1000.0 nM"}, "[34]": {"target": "Calcium/calmodulin-dependent protein kinase type 1D (Homo sapiens) (UniProt Q8IU85)", "sequence (Q8IU85 whole entry, looked up)": "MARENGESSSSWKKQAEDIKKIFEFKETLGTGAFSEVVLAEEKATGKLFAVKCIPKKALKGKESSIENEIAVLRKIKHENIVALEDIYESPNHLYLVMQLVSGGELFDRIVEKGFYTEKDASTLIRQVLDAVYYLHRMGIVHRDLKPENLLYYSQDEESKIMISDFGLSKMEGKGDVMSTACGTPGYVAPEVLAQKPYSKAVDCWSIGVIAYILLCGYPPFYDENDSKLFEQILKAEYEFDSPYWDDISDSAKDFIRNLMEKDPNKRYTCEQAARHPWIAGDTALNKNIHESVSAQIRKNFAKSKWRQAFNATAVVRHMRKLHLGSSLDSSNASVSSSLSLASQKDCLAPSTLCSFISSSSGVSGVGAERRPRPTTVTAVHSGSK", "conditions": "Compound concentration 1000.0 nM"}, "[35]": {"tested_on": "GABA-B receptor (GABBR1, rat)", "experiment": "GABAB/RA Eurofins-Panlabs selectivity data (BI)", "conditions": "Compound concentration 10.0 uM"}, "[36]": {"target": "5-hydroxytryptamine receptor 1D (Homo sapiens) (UniProt P28221)", "conditions": "Compound concentration 10.0 uM"}, "[37]": {"target": "Protein kinase C iota type (Homo sapiens) (UniProt P41743)", "sequence (P41743 whole entry)": "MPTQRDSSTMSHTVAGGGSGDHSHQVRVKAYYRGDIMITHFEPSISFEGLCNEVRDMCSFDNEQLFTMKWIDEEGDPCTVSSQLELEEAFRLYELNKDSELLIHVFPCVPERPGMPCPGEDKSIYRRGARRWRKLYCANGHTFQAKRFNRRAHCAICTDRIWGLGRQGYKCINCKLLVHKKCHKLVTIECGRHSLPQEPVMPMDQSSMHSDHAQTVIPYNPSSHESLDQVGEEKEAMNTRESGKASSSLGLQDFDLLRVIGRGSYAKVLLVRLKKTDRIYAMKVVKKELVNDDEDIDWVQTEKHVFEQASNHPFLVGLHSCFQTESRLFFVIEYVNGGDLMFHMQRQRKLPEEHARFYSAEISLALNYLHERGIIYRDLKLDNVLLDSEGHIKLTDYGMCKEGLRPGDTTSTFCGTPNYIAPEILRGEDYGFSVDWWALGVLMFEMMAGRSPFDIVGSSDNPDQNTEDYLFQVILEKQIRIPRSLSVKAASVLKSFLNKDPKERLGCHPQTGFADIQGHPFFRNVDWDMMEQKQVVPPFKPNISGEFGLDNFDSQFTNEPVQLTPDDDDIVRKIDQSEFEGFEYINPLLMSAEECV", "conditions": "Compound concentration 1000.0 nM"}, "[38]": {"target": "Transient receptor potential cation channel subfamily M member 6 (Homo sapiens) (UniProt Q9BX84)", "conditions": "Compound concentration 1000.0 nM"}, "[39]": {"tested_on": "Tyrosine-protein kinase ABL1 (Homo sapiens), P00519 [E255K]", "conditions": "Compound concentration 1000.0 nM"}, "[40]": {"target": "Aurora kinase A (Homo sapiens) (UniProt O14965)", "conditions": "Compound concentration 1000.0 nM"}, "[41]": {"target": "Interleukin-1 receptor-associated kinase 4 (Homo sapiens) (UniProt Q9NWZ3)", "conditions": "Compound concentration 1000.0 nM"}, "[42]": {"target": "TGF-beta receptor type-1 (Homo sapiens) (UniProt P36897)", "sequence (P36897 whole entry)": "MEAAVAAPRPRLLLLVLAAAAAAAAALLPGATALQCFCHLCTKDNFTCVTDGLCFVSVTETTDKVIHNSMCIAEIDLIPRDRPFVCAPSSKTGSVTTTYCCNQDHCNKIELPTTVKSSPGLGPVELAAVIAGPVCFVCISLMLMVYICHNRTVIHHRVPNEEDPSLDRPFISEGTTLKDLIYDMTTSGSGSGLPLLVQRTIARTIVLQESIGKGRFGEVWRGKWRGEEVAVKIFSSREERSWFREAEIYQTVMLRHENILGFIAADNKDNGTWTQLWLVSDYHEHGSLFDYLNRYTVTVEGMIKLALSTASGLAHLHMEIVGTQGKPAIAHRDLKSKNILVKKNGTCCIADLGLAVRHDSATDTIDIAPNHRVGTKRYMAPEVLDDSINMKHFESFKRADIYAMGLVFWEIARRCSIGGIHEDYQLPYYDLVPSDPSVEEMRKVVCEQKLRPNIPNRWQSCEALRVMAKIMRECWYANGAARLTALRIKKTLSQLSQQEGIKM", "conditions": "Compound concentration 1000.0 nM"}, "[43]": {"target": "Serine/threonine-protein kinase ULK1 (Homo sapiens) (UniProt O75385)", "conditions": "Compound concentration 1000.0 nM"}, "[44]": {"target": "Tyrosine-protein kinase Fer (Homo sapiens) (UniProt P16591)", "conditions": "Compound concentration 1000.0 nM"}}, "data": [{"smiles": "CCOCCn1cc(C(=O)Nc2ccc(-n3nc(-c4cccnc4)cc3C(F)(F)F)cn2)ccc1=O", "note": "[BI 1935]", "values": [{"measurement": "residual activity", "setting": "[1]", "value": 79, "unit": "%"}, {"measurement": "residual activity", "setting": "[2]", "value": 100, "unit": "%"}, {"measurement": "residual activity", "setting": "[3]", "value": 96, "unit": "%"}, {"measurement": "residual activity", "setting": "[4]", "value": 91, "unit": "%"}, {"measurement": "residual activity", "setting": "[5]", "value": 97, "unit": "%"}, {"measurement": "residual activity", "setting": "[6]", "value": 100, "unit": "%"}, {"measurement": "residual activity", "setting": "[7]", "value": 100, "unit": "%"}, {"measurement": "residual activity", "setting": "[8]", "value": 75, "unit": "%"}, {"measurement": "residual activity", "setting": "[9]", "value": 100, "unit": "%"}, {"measurement": "residual activity", "setting": "[10]", "value": 89, "unit": "%"}, {"measurement": "residual activity", "setting": "[11]", "value": 100, "unit": "%"}, {"measurement": "residual activity", "setting": "[12]", "value": 100, "unit": "%"}, {"measurement": "residual activity", "setting": "[13]", "value": 87, "unit": "%"}, {"measurement": "residual activity", "setting": "[14]", "value": 100, "unit": "%"}, {"measurement": "residual activity", "setting": "[15]", "value": 0, "unit": "%"}, {"measurement": "residual activity", "setting": "[16]", "value": 86, "unit": "%"}, {"measurement": "inhibition", "setting": "[17]", "value": 34.3, "unit": "%"}, {"measurement": "residual activity", "setting": "[18]", "value": 63, "unit": "%"}, {"measurement": "residual activity", "setting": "[19]", "value": 72, "unit": "%"}, {"measurement": "residual activity", "setting": "[20]", "value": 73, "unit": "%"}, {"measurement": "inhibition", "setting": "[21]", "value": 50, "unit": "%"}, {"measurement": "residual activity", "setting": "[22]", "value": 61, "unit": "%"}, {"measurement": "residual activity", "setting": "[23]", "value": 100, "unit": "%"}, {"measurement": "residual activity", "setting": "[24]", "value": 100, "unit": "%"}, {"measurement": "residual activity", "setting": "[25]", "value": 89, "unit": "%"}, {"measurement": "residual activity", "setting": "[26]", "value": 84, "unit": "%"}, {"measurement": "residual activity", "setting": "[27]", "value": 92, "unit": "%"}, {"measurement": "residual activity", "setting": "[28]", "value": 74, "unit": "%"}, {"measurement": "residual activity", "setting": "[29]", "value": 100, "unit": "%"}, {"measurement": "residual activity", "setting": "[30]", "value": 90, "unit": "%"}, {"measurement": "residual activity", "setting": "[31]", "value": 100, "unit": "%"}, {"measurement": "residual activity", "setting": "[32]", "value": 87, "unit": "%"}, {"measurement": "residual activity", "setting": "[33]", "value": 100, "unit": "%"}, {"measurement": "residual activity", "setting": "[34]", "value": 100, "unit": "%"}, {"measurement": "residual activity", "setting": "[35]", "value": 94, "unit": "%"}, {"measurement": "inhibition", "setting": "[36]", "value": 0.593, "unit": "%"}, {"measurement": "residual activity", "setting": "[37]", "value": 73, "unit": "%"}, {"measurement": "residual activity", "setting": "[38]", "value": 73, "unit": "%"}, {"measurement": "residual activity", "setting": "[39]", "value": 69, "unit": "%"}, {"measurement": "residual activity", "setting": "[40]", "value": 85, "unit": "%"}, {"measurement": "residual activity", "setting": "[41]", "value": 96, "unit": "%"}, {"measurement": "residual activity", "setting": "[42]", "value": 100, "unit": "%"}, {"measurement": "residual activity", "setting": "[43]", "value": 76, "unit": "%"}, {"measurement": "residual activity", "setting": "[44]", "value": 100, "unit": "%"}]}]}
